Laboratory results published in patent publication US20150315241A1, “Antibiotic Peptides” (priority 2007, published 2015).
≈ marks a conversion by molar mass, not a printed value. Where a SMILES comes first, the peptide text is derived from it. Where no end group is shown, it is not given here. [ ]: non-standard residue; d: D form. Hyp = O=C(O)[C@@H]1C[C@@H](O)CN1; Orn = NCCC[C@H](N)C(=O)O

Key:
[1] = system: E. coli D31; format: cell-based, Escherichia coli; conditions: D31, 20 h
How it was run: (§1)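 MIC by growth inhibition: overnight NB culture → 5×10^6 CFU/mL in 1% TSB; peptide 2-fold series, final 125 μg/mL to 60 ng/mL; 37° C., 20 hrs; OD595. n=3.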

[2] = system: K. Pneumonia K6, ATCC 700603; test: Growth inhibition assay (MIC); format: cell-based, Klebsiella pneumoniae; conditions: multidrug resistant strain; 1% TSB, 37° C., 20 hrs
How it was run: as §1

[3] = system: E. coli BL 21 AI; test: Growth inhibition assay (MIC); format: cell-based, Escherichia coli; conditions: 1% TSB, 37° C., 20 hrs
How it was run: (§2)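 Bacteria grown overnight in NB at 37° C. were adjusted to 5×10^6 CFU/mL in 1% TSB and mixed 1:1 with a two-fold peptide series (final 125 μg/mL–60 ng/mL). After 20 hrs at 37° C., A595 was read; triplicates.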

[4] = system: E. coli DC 2; test: Growth inhibition assay (MIC); format: cell-based, Escherichia coli; conditions: 1% TSB, 37° C., 20 hrs
How it was run: as §2

[5] = system: S. enterica subsp. Enterica serovar. typhi G10215 ATCC 700408; format: cell-based, Salmonella enterica; conditions: ATCC 700408, 20 h
How it was run: as §1

[6] = system: E. coli 1103; format: cell-based, Escherichia coli; conditions: 1103, 20 h
How it was run: as §2

[7] = system: M. luteus ATCC 10240; format: cell-based, Micrococcus luteus; conditions: ATCC 10240, 20 h
How it was run: as §2

[8] = system: K. pneumonia 681; format: cell-based, Klebsiella pneumoniae; conditions: 20 h
How it was run: as §2

[9] = system: Mycobacterium vaccae; format: cell-based; conditions: 20 h
Description: The minimal inhibition concentrations (MIC) of the apidaecin-derived peptides and peptide-derivatives were determined by a growth inhibition assay using a serial peptide dilution in sterilized round-bottom 96-well plates (polystyrene, U-bottom, Greiner Bio-One GmbH) with a final volume of 100 μL per well. The bacteria, e.g., E. coli BL21 A1, were grown in nutrient broth (NB, Carl Roth GmbH+Co. KG, Karlsruhe, Germany) at 37° C. over night. To each well of the 96-well plate, 50 μL of the overnight culture adjusted to 5×10^6 CFU/mL in 1% TSB were added. Lyophilized peptides and peptidomimetics were dissolved in 1% TSB (tryptic soy broth) or water to give a final concentration of 250 μg/mL. Fifty μL of the peptide or peptidomimetics solution were added to the first well of a row on the plate and mixed. Fifty μL of the first well containing the peptide solution were transferred to the second well, mixed and again 50 μL transferred to the next well and so on. Thereby, a two-fold dilution series was obtained starting at 250 μg/mL in the first well down to 120 ng/mL in the 12th well of a row giving a final peptide or peptidomimetics concentration from 125 μg/mL (well 1) to 60 ng/mL (well 12). Plates were incubated at 37° C. for 20 hrs. The absorbance was measured at 595 nm using a TECAN micro plate spectrophotometer (Tecan, Germany). All peptides and peptidomimetics were measured in triplicates. Sterilized water was used as a negative control.
The bacteria strains were tested: • Eschericha coli 1103, 10233, BL 21 AI, DC 2, • Klebsiella pneumoniae 681, • Micrococcus luteus ATCC 10240, • Mycobacterium vaccae • Bactillus subtillis 347.

[10] = system: B. subtilis 347; format: cell-based, Bactillus subtillis; conditions: 347, 20 h
How it was run: as §2

[11] = system: K. Pneumonia 123132; test: Growth inhibition assay (MIC); format: cell-based, Klebsiella pneumoniae; conditions: multidrug resistant strain; 1% TSB, 37° C., 20 hrs
How it was run: as §1

[12] = system: R. radiobatter ATCC 15955; test: Growth inhibition assay (MIC); format: cell-based, Rhizobium radiobacter; conditions: multidrug resistant strain; 1% TSB, 37° C., 20 hrs
How it was run: as §1

[13] = system: S. typhi S5; format: cell-based, Salmonella typhi; conditions: S5, 20 h
How it was run: as §1

[14] = system: E. coli 45849; test: Growth inhibition assay (MIC); format: cell-based, Escherichia coli; conditions: multidrug resistant strain; 1% TSB, 37° C., 20 hrs
How it was run: as §1

| Compound | MIC E. coli D31 [1] [µg/mL] | MIC K. Pneumonia K6, ATCC 700603 [2] [µg/mL] | MIC E. coli BL 21 AI [3] [µg/mL] | MIC E. coli DC 2 [4] [µg/mL] | MIC S. enterica subsp. Enterica serovar. typhi G10215 ATCC 700408 [5] [µg/mL] | MIC E. coli 1103 [6] [µg/mL] | MIC M. luteus ATCC 10240 [7] [µg/mL] | MIC K. pneumonia 681 [8] [µg/mL] | MIC Mycobacterium vaccae [9] [µg/mL] | MIC B. subtilis 347 [10] [µg/mL] | MIC K. Pneumonia 123132 [11] [µg/mL] | MIC R. radiobatter ATCC 15955 [12] [µg/mL] | MIC S. typhi S5 [13] [µg/mL] | MIC E. coli 45849 [14] [µg/mL] |
| --- | --- | --- | --- | --- | --- | --- | --- | --- | --- | --- | --- | --- | --- | --- |
| GNNRPVYIPRPRPPHPRI-NH2 [compound 14] | 64 | 8 | 0.49 | 7.81 | 2 | 0.98 | 0.98 | 15.62 | – | – | – | – | – | – |
| CC[C@H](C)[C@H](NC(=O)[C@H](Cc1ccc(O)cc1)NC(=O)[C@@H](NC(=O)[C@@H]1CCCN1C(=O)[C@H](CCCNC(=N)N)NC(=O)[C@H](CC(N)=O)NC(=O)[C@H](CC(N)=O)NC(=O)CN)C(C)C)C(=O)N1CCC[C@H]1C(=O)N[C@@H](CCCNC(=N)N)C(=O)N1C[C@H](O)C[C@H]1C(=O)N[C@@H](CCCNC(=N)N)C(=O)N1CCC[C@H]1C(=O)N1CCC[C@H]1C(=O)N[C@@H](Cc1c[nH]cn1)C(=O)N1CCC[C@H]1C(=O)N[C@@H](CCCNC(=N)N)C(=O)N[C@@H](CC(C)C)C(N)=O [compound 20] (H-GNNRPVYIPR[Hyp]RPPHPRL-NH2) | 32 (≈ 14.9 µM) | 8 (≈ 3.72 µM) | 0.49 (≈ 0.228 µM) | 1.95 to 3.91 | – | 3.9 (≈ 1.81 µM) | 1.95 (≈ 0.906 µM) | 3.9 (≈ 1.81 µM) | 125 (≈ 58.1 µM) | >125 | 4 (≈ 1.86 µM) | 0.33 (≈ 0.153 µM) | <0.5 | 1 (≈ 0.465 µM) |
| H-GNNRPVYLPQPRPPHPRI-NH2 [compound 26] | >128 | 128 | 3.91 | 7.81 | 4 | 3.91 | 1.95 | 15.62 | – | – | 32 | 2.6 | 32 | 16 |
| CC[C@H](C)[C@H](NC(=O)[C@H](CCCNC(=N)N)NC(=O)[C@@H]1CCCN1C(=O)[C@H](Cc1c[nH]cn1)NC(=O)[C@@H]1CCCN1C(=O)[C@@H]1CCCN1C(=O)[C@H](CCCNC(=N)N)NC(=O)[C@@H]1C[C@@H](O)CN1C(=O)[C@H](CCCNC(=N)N)NC(=O)[C@@H]1CCCN1C(=O)[C@@H](NC(=O)[C@H](Cc1ccc(O)cc1)NC(=O)[C@@H](NC(=O)[C@@H]1CCCN1C(=O)[C@H](CCCNC(=N)N)NC(=O)[C@H](CC(N)=O)NC(=O)[C@H](CC(N)=O)NC(=O)CN)C(C)C)[C@@H](C)CC)C(N)=O [compound 15] (H-GNNRPVYIPR[Hyp]RPPHPRI-NH2) | 64 (≈ 29.7 µM) | – | – | – | 2 (≈ 0.93 µM) | 1.95 (≈ 0.906 µM) | 1.95 (≈ 0.906 µM) | 3.9 (≈ 1.81 µM) | 125 (≈ 58.1 µM) | >125 | – | – | 2 (≈ 0.93 µM) | – |
| CC[C@H](C)[C@H](NC(=O)[C@H](CCCNC(=N)N)NC(=O)[C@@H]1CCCN1C(=O)[C@H](Cc1c[nH]cn1)NC(=O)[C@@H]1CCCN1C(=O)[C@@H]1CCCN1C(=O)[C@H](CCCNC(=N)N)NC(=O)[C@@H]1CCCN1C(=O)[C@H](CCCNC(=N)N)NC(=O)[C@@H]1CCCN1C(=O)[C@@H](NC(=O)[C@H](Cc1ccc(O)cc1)NC(=O)[C@@H](NC(=O)[C@@H]1CCCN1C(=O)[C@H](CCCNC(=N)N)NC(=O)[C@H](CC(N)=O)NC(=O)[C@H](CC(N)=O)NC(=O)[C@H](CCCN)NC(C)=O)C(C)C)[C@@H](C)CC)C(N)=O [compound 65] (Ac-[Orn]NNRPVYIPRPRPPHPRI-NH2) | – | – | 0.98 (≈ 0.439 µM) | 7.81 (≈ 3.49 µM) | – | 1.95 (≈ 0.873 µM) | 0.98 (≈ 0.439 µM) | 7.81 (≈ 3.49 µM) | 62.5 (≈ 28 µM) | 125 (≈ 55.9 µM) | – | – | – | – |
